Reference: patent US9447075B2, “Pyridazine derivatives as EAAT2 activators” (The Brigham and Women's Hospital, Inc., priority 2011, dated 2016)

Tests used:
EAAT2 [1] = experiment: Immunofluorescent staining of induced EAAT2 protein in PA-EAAT2 cells; type: cell-based, human; conditions: PA-EAAT2 cells (FIG. 6E)
Procedure: (§1) Characterization and efficacy studies of a compound, Compound 212320 (FIG. 6A) is shown. […] In the absence of serum, PA-EAAT2 cells express low amounts of EAAT2 protein, although the recombinant EAAT2 mRNA are expressed (translational silencing); however, EAAT2 protein levels are increased when an activator is added to the culture (translational activation). This cell line was used for high-throughput screening to identify EAAT2 translational activators. To prioritize candidate compounds, we initially evaluated activation of EAAT2 protein in PA-EAAT2 cells. Promising compounds were further evaluated in primary dissociated neuron and astrocyte mixed cultures and then in mice. FIG. 6 presents the characterization of Compound 212320 in PA-EAAT2 cells. Compound 212320 increased EAAT2 protein levels in a dose—(FIG. 6B) and time—(FIG. 6C) dependent manner. Importantly, the induction occurred in a short amount of time (within 1-2 hr) and was sustained even up to 72 hr (data not show). Additionally, induction occurred at low nanomolar concentrations. […] (FIG. 6D).

EAAT2 [2] = experiment: EAAT2 protein levels in PA-EAAT2 cells by Western blot; type: cell-based, human
Procedure: All of the derivates of 1 were initially evaluated in PA-EAAT2 cells^3 (a primary astrocyte line stably expressing EAAT2 mRNAs) following compound (10 μM) incubation for 4 and 24 h before harvesting and measuring EAAT2 levels by Western blot analysis. The fold increases in EAAT2 protein levels relative to DMSO controls are reported (Tables 1-4).
as §1

[3] = tested on: All other targets (seventy-one targets tested); experiment: In vitro side effect profiling: all other of seventy-one targets; conditions: 10 μM, duplicate
Procedure: (§2) To assess Compound 212320's biological activity and selectivity, we performed an in vitro side effect profiling study. Seventy-one targets were tested at 10 μM in duplicate. These targets include neurotransmitter related receptors (30), steroids (2), ion channels (6), second messenger (1), prostaglandins (3), growth factors/hormones (4), brain/gut peptides (13), enzymes (5) and cytochrome p450 (7). […] Additionally, we performed a protein kinase profiling study. Compound 212320 was tested at 1 and 10 μM against 288 kinases. […] These studies indicate that Compound 212320 has high specificity and low side-effects/toxicity potential.

calcium channel L-type = experiment: In vitro side effect profiling: calcium channel L-type; type: binding; conditions: 10 μM, duplicate
Procedure: as §2

[4] = tested on: male C57/BL6 mice, focal cerebral ischemia; experiment: Stroke model, transient middle cerebral artery occlusion (MCAO); type: in vivo, mouse; conditions: 24 hours after surgery
Procedure: Compound 212320 was evaluated in the transient middle cerebral artery occlusion (MCAO), a well-characterized model of focal cerebral ischemia (experimental stroke). Adult male C57/BL6 mice (60-70 days old) were used. The internal carotid artery was occluded for 60 min. Following reperfusion, mice received 40 mg/kg of Compound 212320 by intraperitoneal injection. 24 hours after surgery, brains were removed and processed to determine infarct volume.
Mice received 40 mg/kg Compound 212320 or vehicle intraperitoneally and 24 h after stroke, brains were processed to measure infarct volume.

EAAT2 mRNA [5] = experiment: EAAT2 mRNA in brain by quantitative real-time RT-PCR after i.p. administration; type: in vivo, mouse; conditions: FIG. 8D
Procedure: (§3) We next examined EAAT2 protein levels and glutamate uptake activities in brain following i.p. administration of Compound 212320 in C57BL/6 mice. Plasma membrane vesicles were prepared from mouse forebrains to measure functional EAAT2 protein. After a single i.p. dose of Compound 212320 at 40 mg/kg, EAAT2 protein levels and associated glutamate uptake increased to ˜1.5-2-fold at 2 hr and to ˜2-3-fold from 8 hr to 24 hr post-injection (FIG. 8B). Even at 72 hr, a ˜1.5 fold increase in EAAT2 protein levels could still be detected (data not shown). In addition, Compound 212320-induced EAAT2 protein levels and glutamate uptake were both dose-dependent (FIG. 8C). This induction was not due to transcriptional activation because EAAT2 mRNA was not increased as measured by quantitative real-time RT-PCR (FIG. 8D). We compared ceftriaxone (200 mg/kg), which increases EAAT2 expression through transcriptional activation, with Compound 212320 (40 mg/kg) that activates EAAT2 translation.

EAAT2 [6] = experiment: EAAT2 protein levels and glutamate uptake in forebrain plasma membrane vesicles after i.p. administration; type: in vivo, mouse; conditions: for EAAT2 protein levels increase / Glutamate uptake increase: single i.p. 40 mg/kg
Procedure: as §3

[7] = tested on: APPSw/Ind transgenic mice; experiment: Alzheimer's disease model, Y-maze test; type: in vivo, mouse; conditions: 40 mg/kg i.p. daily for 10 days, 7-month-old mice
Procedure: Compound 212320 was evaluated in APPSw/Ind transgenic mice, an Alzheimer's disease model. […] 7-month-old mice were treated with 40 mg/kg of Compound 212320 by intraperitoneal injection daily for 10 days and then evaluated the effects on short-term memory by Y-maze test. Compound 212320 restored short-term memory loss in APP mice after 10-day treatment (23 wild-type mice, 21 APP mice).
APPSw/Ind transgenic mice were treated with Compound 212320 at 40 mg/kg or vehicle intraperiotoneally beginning at 7 months after symptoms of memory loss are apparent. After daily treatment for 10 days, Y-maze was used to measure effects on short-term memory.

EAAT2 mRNA [8] = experiment: Quantitative real-time RT-PCR of EAAT2 mRNA in PA-EAAT2 cells; type: cell-based, human; conditions: PA-EAAT2 cells (FIG. 6F)
Procedure: as §1

EphA4 = EphA4 (Homo sapiens, UniProt P54764); experiment: Protein kinase profiling: EphA4; type: biochemical; conditions: read-out: EphA4 inhibited
Procedure: as §2

[9] = from 8 hr to 24 hr post-injection

EphA4, sequence (P54764 20-986, species assumed): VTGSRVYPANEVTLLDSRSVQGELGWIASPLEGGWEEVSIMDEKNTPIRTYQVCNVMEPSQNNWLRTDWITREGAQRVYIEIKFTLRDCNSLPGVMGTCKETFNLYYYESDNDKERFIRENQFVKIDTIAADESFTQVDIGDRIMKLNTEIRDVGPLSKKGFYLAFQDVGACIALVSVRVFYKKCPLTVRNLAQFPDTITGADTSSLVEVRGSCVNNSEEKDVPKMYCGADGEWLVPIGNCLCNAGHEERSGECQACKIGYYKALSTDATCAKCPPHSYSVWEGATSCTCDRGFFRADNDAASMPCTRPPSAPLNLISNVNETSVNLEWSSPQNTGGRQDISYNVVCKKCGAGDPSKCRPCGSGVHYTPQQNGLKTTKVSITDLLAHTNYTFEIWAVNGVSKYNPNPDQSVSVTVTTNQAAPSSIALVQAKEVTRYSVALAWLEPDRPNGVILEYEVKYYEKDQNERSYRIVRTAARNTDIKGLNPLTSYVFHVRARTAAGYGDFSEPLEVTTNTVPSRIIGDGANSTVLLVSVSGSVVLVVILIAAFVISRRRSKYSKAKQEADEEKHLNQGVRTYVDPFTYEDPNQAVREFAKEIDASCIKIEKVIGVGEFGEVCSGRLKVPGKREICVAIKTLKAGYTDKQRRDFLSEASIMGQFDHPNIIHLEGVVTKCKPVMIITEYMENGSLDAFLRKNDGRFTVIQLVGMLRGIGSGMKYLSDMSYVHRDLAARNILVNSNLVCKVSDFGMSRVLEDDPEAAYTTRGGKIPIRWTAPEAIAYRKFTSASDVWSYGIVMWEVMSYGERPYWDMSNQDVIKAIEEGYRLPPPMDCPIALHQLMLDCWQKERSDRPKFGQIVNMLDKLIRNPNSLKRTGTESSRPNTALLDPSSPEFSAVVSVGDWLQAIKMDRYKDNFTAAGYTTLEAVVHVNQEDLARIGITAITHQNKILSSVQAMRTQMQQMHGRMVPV

Question: With Cc1ccccc1CSc1ccc(-c2ccccn2)nn1 [Compound 7-4] as the molecule, how does the “Localization of induced EAAT2 protein” value (EAAT2 [1]) read?
Answer: The value was “properly localized to the plasma membrane”.

Question: And the “Concentrations at which EAAT2 induction occurred” value (EAAT2 [2]; PA-EAAT2 cells)?
Answer: Its value is “low nanomolar”.

Question: And the “Time in which EAAT2 induction occurred” value (EAAT2 [2]; PA-EAAT2 cells)?
Answer: The value was 1 to 2 h.

Question: And the “Time up to which EAAT2 induction was sustained” value (EAAT2 [2]; PA-EAAT2 cells, data not shown)?
Answer: Its value is “up to 72 hr”.

Question: What about the EAAT2 protein levels (EAAT2 [2]; PA-EAAT2 cells, dose- and time-dependent manner (FIG. 6B, 6C)) of the same molecule?
Answer: Its EAAT2 protein levels is “increased”.

Question: What about the “Fold increase for EAAT2, 4 h” value (EAAT2 [2]; compound 10 μM, 4 h incubation, PA-EAAT2 cells, relative to DMSO controls, na = not active) of the same molecule?
Answer: Its value is 1.7 ± 0.1 fold.

Question: What about the “Fold increase for EAAT2, 24 h” value (EAAT2 [2]; compound 10 μM, 24 h incubation, PA-EAAT2 cells, relative to DMSO controls, na = not active) of the same molecule?
Answer: Its value is 3.5 ± 0.3 fold.

Question: What about the “SAR comparison of activity on EAAT2 protein levels, in words” value (EAAT2 [2]; relative to parent/comparator analogue, Tables 1-4) of the same molecule?
Answer: The value was “increased potency”.

Question: And the “inhibition, all other targets” value [3]?
Answer: Its value is less than 30%.

Question: What about the “inhibition on calcium channel L-type” value (calcium channel L-type) of the same molecule?
Answer: Its value is 43%.

Question: What about the “Decrease of infarct volume” value ([4]; 40 mg/kg i.p. following reperfusion, vs vehicle) of the same molecule?
Answer: The value was 57%.

Question: And the Infarct volume ([4]; 40 mg/kg i.p., n=6)?
Answer: Its Infarct volume is 6.8±1.6.

Question: And the “EAAT2 mRNA” value (EAAT2 mRNA [5])?
Answer: Its value is “not increased”.

Question: And the “EAAT2 induction compared with ceftriaxone” value (EAAT2 [6]; 40 mg/kg vs ceftriaxone 200 mg/kg, a single dose after 24 hr)?
Answer: The value was “greater EAAT2 induction than ceftriaxone”.

Question: And the “Induced EAAT2 protein levels, dose dependence” value (EAAT2 [6]; FIG. 8C)?
Answer: Its value is “dose-dependent”.

Question: What about the “Induced glutamate uptake, dose dependence” value (EAAT2 [6]; FIG. 8C) of the same molecule?
Answer: The value was “dose-dependent”.

Question: What about the “EAAT2 protein levels increase” value (EAAT2 [6]; 2 hr post-injection) of the same molecule?
Answer: The value was 1.5-2 fold.

Question: And the Glutamate uptake increase (EAAT2 [6]; 2 hr post-injection)?
Answer: Its Glutamate uptake increase is 1.5-2 fold.

Question: What about the “EAAT2 protein levels increase” value (EAAT2 [6]; 72 hr, data not shown) of the same molecule?
Answer: Its value is roughly 1.5 fold.

Question: What about the “EAAT2 protein levels increase” value (EAAT2 [6]; [9]) of the same molecule?
Answer: Its value is 2-3 fold.

Question: What about the Glutamate uptake increase (EAAT2 [6]; [9]) of the same molecule?
Answer: Its Glutamate uptake increase is 2-3 fold.

Question: And the “Short-term memory loss (Y-maze test)” value [7]?
Answer: The value was “restored”.

Question: What about the “EAAT2 mRNA levels” value (EAAT2 mRNA [8]) of the same molecule?
Answer: The value was “not changed”.

Question: What about the inhibition at 10 µM (EphA4) of the same molecule?
Answer: Its inhibition at 10 µM is 44%.
